# Measurements reported in US20100331297A1, “MODULATION OF PROTEIN TRAFFICKING” (FOLDRX PHARMACEUTICALS, INC., priority 2007, published 2010).
# Tests used:
# ΔF508 CFTR [1] = biological target: T1, ΔF508 CFTR (Homo sapiens, UniProt P13569, DEL508-508); experiment: Corrector activity, YFP halide (iodide) quenching assay in FRT cells expressing ΔF508 CFTR; assay type: cell-based; set-up: expressed in transfected cells; host or cells: Fischer rat thyroid (FRT) cells; conditions: FRT cells ΔF508 CFTR/YFP, 24 hours with compound at 37° C., forskolin and genistein; read-out: Corrector EC50
# T1 sequence (P13569 with tags, fused parts or gaps DEL508-508): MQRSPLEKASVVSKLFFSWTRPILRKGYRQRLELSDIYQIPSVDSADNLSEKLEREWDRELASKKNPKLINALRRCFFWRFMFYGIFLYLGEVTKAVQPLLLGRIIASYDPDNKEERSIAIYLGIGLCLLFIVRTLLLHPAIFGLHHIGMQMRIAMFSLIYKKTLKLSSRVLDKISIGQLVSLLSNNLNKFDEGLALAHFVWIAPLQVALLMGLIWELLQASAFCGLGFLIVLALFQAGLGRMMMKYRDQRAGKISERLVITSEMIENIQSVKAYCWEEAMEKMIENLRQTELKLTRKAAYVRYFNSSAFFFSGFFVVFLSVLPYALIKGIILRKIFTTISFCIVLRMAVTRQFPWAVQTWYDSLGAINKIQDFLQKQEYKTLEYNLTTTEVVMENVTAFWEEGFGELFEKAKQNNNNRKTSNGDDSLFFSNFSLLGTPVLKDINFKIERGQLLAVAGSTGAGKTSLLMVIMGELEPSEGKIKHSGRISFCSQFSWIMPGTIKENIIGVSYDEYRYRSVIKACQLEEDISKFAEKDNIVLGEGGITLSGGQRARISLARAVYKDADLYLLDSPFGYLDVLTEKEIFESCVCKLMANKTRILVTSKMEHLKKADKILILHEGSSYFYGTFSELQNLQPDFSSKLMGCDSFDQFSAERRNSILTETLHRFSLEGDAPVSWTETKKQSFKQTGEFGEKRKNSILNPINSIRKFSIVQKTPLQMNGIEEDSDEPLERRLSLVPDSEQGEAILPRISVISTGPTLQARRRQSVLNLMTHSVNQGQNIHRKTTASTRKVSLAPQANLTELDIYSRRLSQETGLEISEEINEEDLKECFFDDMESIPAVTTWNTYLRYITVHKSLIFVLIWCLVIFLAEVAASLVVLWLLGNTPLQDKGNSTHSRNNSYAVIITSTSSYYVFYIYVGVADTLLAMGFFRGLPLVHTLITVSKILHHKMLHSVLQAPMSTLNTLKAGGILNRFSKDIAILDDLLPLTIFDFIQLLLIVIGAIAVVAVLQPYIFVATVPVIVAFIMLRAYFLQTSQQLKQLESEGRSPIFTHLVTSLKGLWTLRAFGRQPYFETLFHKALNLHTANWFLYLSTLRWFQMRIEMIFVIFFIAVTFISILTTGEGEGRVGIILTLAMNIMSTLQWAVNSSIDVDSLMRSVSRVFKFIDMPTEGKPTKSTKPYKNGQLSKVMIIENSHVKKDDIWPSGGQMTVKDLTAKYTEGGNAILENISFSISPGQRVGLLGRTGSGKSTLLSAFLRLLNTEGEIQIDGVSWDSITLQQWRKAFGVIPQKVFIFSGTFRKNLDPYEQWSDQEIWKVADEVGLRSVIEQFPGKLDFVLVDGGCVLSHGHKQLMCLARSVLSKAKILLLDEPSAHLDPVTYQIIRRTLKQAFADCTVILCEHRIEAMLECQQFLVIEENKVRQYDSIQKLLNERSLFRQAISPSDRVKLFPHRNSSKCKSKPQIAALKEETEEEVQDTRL
# Method: Fisher rat thyroid (FRT) cells stably expressing ΔF508 CFTR and a halide-sensitive variant of yellow fluorescent protein (YFP) were seeded into microtiter plates and allowed to grow for 24 hours at 37° C. and 5% CO2. See Pedemonte et al., J. Clin. Invest. […] Compounds in dimethylsulfoxide (DMSO) solution were pre-diluted into cell culture medium, the medium was removed from cells, and then fresh medium containing the compounds was applied. The cells were incubated for a further 24 hours at 37° C. and 5% CO2.
# Activity of CFTR was assayed by removing the medium, washing the cell monolayer with phosphate-buffered saline solution (PBS), and then applying PBS containing forskolin and genistein. After 30 min incubation at 37° C., the plates were placed in a fluorescence plate reader equipped with a reagent injector.
# Corrector activity was calculated as follows. Normalized endpoint fluorescence was calculated by dividing the endpoint fluorescence after iodide injection by the initial fluorescence reading and multiplication by 100. Corrector EC50 values were calculated from the activity vs. concentration data using a 4-parameter log fit. The bottom of the curve was constrained to zero activity (DMSO control) while the slope, EC50, and top of the curve were fitted to the data. The EC50 was determined as the concentration that corresponds to the inflection point of the fitted curve.
# ΔF508 CFTR [2] = biological target: T1, ΔF508 CFTR; experiment: Potentiator activity, YFP halide (iodide) quenching assay in FRT cells expressing ΔF508 CFTR, 27° C. pre-incubation; assay type: cell-based; set-up: expressed in transfected cells; host or cells: Fischer rat thyroid (FRT) cells; conditions: FRT cells ΔF508 CFTR/YFP, 24 hours at 27° C., compound with forskolin 30 min
# Method: Fisher rat thyroid (FRT) cells stably expressing ΔF508 CFTR and a halide-sensitive variant of yellow fluorescent protein (YFP) were seeded into microtiter plates and allowed to grow for 24 hours at 37° C. and 5% CO2, as described above. The medium was replaced with fresh medium and the cells were incubated for a further 24 hours at 27° C. and 5% CO2 to increase the level of mutant CFTR at the cell surface.
# Compounds in DMSO solution were pre-diluted into phosphate-buffered saline solution (PBS) containing forskolin. Activity of CFTR was assayed by removing the medium, washing the cell monolayer with PBS, and then applying the compounds diluted in PBS containing forskolin. After 30 min of incubation at 37° C., the plates were placed in a fluorescence plate reader equipped with a reagent injector. After measuring an initial fluorescence value, iodide-containing buffer was injected and the decrease in fluorescence was followed at excitation and emission wavelengths of 485 and 530 nm, respectively.
# Potentiator activity was calculated as follows. Normalized endpoint fluorescence was calculated by dividing the endpoint fluorescence after iodide injection by the initial fluorescence reading and multiplication by 100. Potentiator EC50 values were calculated by the same method as corrector EC50 values.
EC50 (ΔF508 CFTR [1]) [µM],EC50 (ΔF508 CFTR [2]) [µM],SMILES
2 to 5,2 to 5,CC(=O)N(C(C)=O)c1ncnc2c1c(-c1ccc(Cl)cc1)nn2C(C)(C)C [Compound No. 97]
> 15,> 15,"Nc1ncnc2[nH]nc(Oc3cccc(Cl)c3)c12 [Compound No. 220, 3-(3-Chloro-phenoxy)-1H-pyrazolo[3,4-d]pyrimidin-4-ylamine]"
< 2,2 to 5,"Nc1ncnc2c1c(-c1ccc(Cl)cc1)cn2CC1CC1 [Compound No. 242, 5-(4-Chloro-phenyl)-7-cyclopropylmethyl-7H-pyrrolo[2,3-d]pyrimidin-4-ylamine]"
< 2,< 2,"CC(C)(C)n1cc(-c2ccc(Cl)cc2)c2c(N)ncnc21 [Compound No. 261, 7-tert-Butyl-5-(4-chloro-phenyl)-7H-pyrrolo[2,3-d]pyrimidin-4-ylamine]"
> 15,2 to 5,"CC(C)(C)OC(=O)N1CC(n2nc(-c3ccc(Cl)cc3)c3c(N)ncnc32)C1 [Compound No. 267, 3-[4-Amino-3-(4-chloro-phenyl)-pyrazolo[3,4-d]pyrimidin-1-yl]-azetidine-1-carboxylic acid tert-butyl ester]"
2 to 5,> 15,"CC(C)(C)n1nc(-c2ccc(Cl)cc2)c2c(NS(C)(=O)=O)ncnc21 [Compound No. 274, N-[1-tert-Butyl-3-(4-chloro-phenyl)-1H-pyrazolo[3,4-d]pyrimidin-4-yl]-methanesulfonamide]"
> 15,> 15,"CCNC(=O)N1CC(n2nc(-c3ccc(Cl)cc3)c3c(N)ncnc32)C1 [Compound No. 275, 3-[4-Amino-3-(4-chloro-phenyl)-pyrazolo[3,4-d]pyrimidin-1-yl]azetidine-1-carboxylic acid ethylamide]"
> 15,> 15,"COC(=O)Nc1ncnc2c1c(-c1ccc(Cl)cc1)nn2C(C)(C)C [Compound No. 294, [1-tert-Butyl-3-(4-chloro-phenyl)-1H-pyrazolo[3,4-d]pyrimidin-4-yl]-carbamic acid methyl ester]"
< 2,,CCC(=O)Nc1ncnc2c1c(-c1ccc(Cl)cc1)cn2C(C)(C)C [compound 371]
2 to 5,,CC(=O)Nc1ncnc2c1c(-c1ccc(Cl)cc1)cn2C(C)(C)C [compound 372]
5 to 10,,CC(C)(C)n1cc(-c2ccc(Cl)cc2)c2c(NC(=O)C3CCCO3)ncnc21 (stereo not shown) [compound 373]
< 2,,CC(C)(C)n1cc(-c2ccc(Cl)cc2)c2c(NC(=O)C3CCOC3)ncnc21 (stereo not shown) [compound 374]
< 2,,CN1CCC(C(=O)Nc2ncnc3c2c(-c2ccc(Cl)cc2)cn3C(C)(C)C)C1 (stereo not shown) [compound 375]
2 to 5,,CC(C)(C)n1cc(-c2ccc(Cl)cc2)c2c(NC(=O)C3CCCO3)ncnc21 (stereo not shown) [compound 376]
> 15,,CC(C)(C)C(=O)Nc1ncnc2c1c(Oc1cccc(Cl)c1)nn2C(C)(C)C [compound 377]
> 15,,CN1CCC(n2nc(-c3ccc(Cl)cc3)c3c(N)ncnc32)CC1 [compound 378]
> 15,,CN1CC[C@H](n2nc(-c3ccc(Cl)cc3)c3c(N)ncnc32)C1 [compound 379]
> 15,,CC(=O)N1CC(n2nc(Oc3cccc(Cl)c3)c3c(N)ncnc32)C1 [compound 380]
> 15,,CCNC(=O)N1CC(n2nc(Oc3cccc(Cl)c3)c3c(N)ncnc32)C1 [compound 381]
> 15,,CN1CC(n2nc(Sc3cccc(Cl)c3)c3c(N)ncnc32)C1 [compound 382]
> 15,,CN1CC(n2nc(Sc3ccccc3)c3c(N)ncnc32)C1 [compound 383]
> 15,,CC(C)N1CC(n2nc(Sc3ccccc3)c3c(N)ncnc32)C1 [compound 384]
> 15,,CC(C)(C)OC(=O)N1CC(n2nc([S+]([O-])c3ccccc3)c3c(N)ncnc32)C1 (stereo not shown) [compound 385]
> 15,,CCOC(=O)N1CCC(n2nc(Oc3ccccc3)c3c(N)ncnc32)CC1 [compound 386]
> 15,,CN1CC(n2nc(Cc3cccc4ccccc34)c3c(N)ncnc32)C1 [compound 387]
> 15,,CC(C)(C)C(=O)Nc1ncnc2c1cnn2C(C)(C)C [compound 389]
> 15,,CC(C)C(=O)Nc1ncnc2c1cnn2C(C)(C)C [compound 390]

EC50 (ΔF508 CFTR [1]) [µM],EC50 (ΔF508 CFTR [2]) [µM],SMILES
2 to 5,,CC(C)(C)n1cc(-c2ccc(Cl)cc2)c2c(NC(=O)C3CCC3)ncnc21 [compound 391]
> 15,,CCn1nc([S+]([O-])c2cccc(Br)c2)c2c(N)ncnc21 (stereo not shown) [compound 392]
5 to 10,,CC(C)(C)n1nc(-c2ccc(Cl)cc2)c2c(NC(=O)C3CCOC3)ncnc21 (stereo not shown) [compound 393]
> 15,,CC(C)C(=O)C(=O)Nc1ncnc2c1c(-c1ccc(Cl)cc1)nn2C(C)(C)C [compound 394]
5 to 10,,CC(C)(C)n1nc(-c2ccc(Cl)cc2)c2c(NC(=O)C3CC3)ncnc21 [compound 396]
> 15,,CC(C)(C)n1nc(-c2ccc(Cl)cc2)c2c(NC(=O)N3CCCC3)ncnc21 [compound 398]
> 15,,CC(C)(C)n1cc(-c2ccc(Cl)cc2)c2c(NC(=O)N3CCCC3)ncnc21 [compound 399]
> 15,,CC(C)(C)n1nc(Oc2cccc(Cl)c2)c2c(NC(=O)N3CCCC3)ncnc21 [compound 400]
2 to 5,,CCn1c(C)c(-c2ccc(Cl)cc2)c2c(N)ncnc21 [compound 401]
> 15,,CC(C)N1CC(n2nc(Oc3cccc(Cl)c3)c3c(N)ncnc32)C1 [compound 402]
> 15,,CCOC(=O)N1CC(n2nc(Oc3cccc(Cl)c3)c3c(N)ncnc32)C1 [compound 403]
> 15,,CC(=O)N1CC(n2nc([S+]([O-])c3ccccc3)c3c(N)ncnc32)C1 (stereo not shown) [compound 404]
> 15,,CCOC(=O)N1CC(n2nc([S+]([O-])c3ccccc3)c3c(N)ncnc32)C1 (stereo not shown) [compound 405]
> 15,,Nc1ncnc2c1c(Oc1cccc(Cl)c1)nn2C1CNC1 [compound 414]
> 15,,Nc1ncnc2c1c(Sc1cccc(Cl)c1)nn2C1CNC1 [compound 415]
> 15,,Nc1ncnc2c1c(Sc1ccccc1)nn2C1CNC1 [compound 416]
> 15,,Nc1ncnc2c1c(Oc1ccccc1)nn2C1CCNCC1 [compound 417]
> 15,,Nc1ncnc2c1c([S+]([O-])c1cccc(Cl)c1)nn2C1CNC1 (stereo not shown) [compound 418]
> 15,,CCNC(=O)N1CC(n2nc([S+]([O-])c3ccccc3)c3c(N)ncnc32)C1 (stereo not shown) [compound 419]
> 15,,CC(=O)N1CCC(n2nc(Oc3ccccc3)c3c(N)ncnc32)CC1 [compound 420]
2 to 5,,CC(C)(C)n1nc(Br)c2c(NC(=O)c3ccccc3)ncnc21 [compound 421]
2 to 5,,CC(C)(C)C(=O)Nc1ncnc2c1c(Br)nn2C(C)(C)C [compound 422]
< 2,,CC(C)C(=O)Nc1ncnc2c1c(Br)nn2C(C)(C)C [compound 423]
> 15,,CCNC(=O)Nc1ncnc2c1c(Cc1cccc(Cl)c1)nn2C1CN(C(=O)NCC)C1 [compound 424]
2 to 5,,CC(C)(C)n1nc(Br)c2c(N(C(=O)c3ccccc3)C(=O)c3ccccc3)ncnc21 [compound 425]
5 to 10,,CC(C)C(=O)N(C(=O)C(C)C)c1ncnc2c1c(Br)nn2C(C)(C)C [compound 426]
